Columns and labels:
[1] = tested on: pancreatic exocrine function; assay: 13C-dipeptide breath test in normal rats (Δ13C in exhaled CO2 after oral administration); type: in vivo, rat; conditions: for Δ^13C(‰) peak value / Peak time: Table 1, overnight-fasted Wistar rats, oral 35 μmol/kg (5 ml/kg); for Δ^13C(‰) peak value: exhaled CO2; for Peak time: peak in time course of Δ13C(‰) up to 20 min; for Δ^13C(‰) value at 5 min after the administration / Δ^13C(‰) value at 10 min after the administration / Δ^13C(‰) value at 15 min after the administration / Δ^13C(‰) value at 20 min after the administration: normal rats, mean±SD; for Δ^13C(‰) value at 5 min after the administration / Δ^13C(‰) value at 10 min after the administration / Δ^13C(‰) value at 15 min after the administration / Δ^13C(‰) value at 20 min after the administration / Δ^13C(‰) peak value compared with the peak value of Bz-Ala-(^13C-Ala)-ONa: oral 35 μmol/kg; for Δ^13C(‰) peak value compared with the peak value of Bz-Ala-(^13C-Ala)-ONa: rats, comparison in words
Protocol: (§1) Overnight-fasted rats (male, Wistar, 8-week old) in the awake state were individually fixed in a rat holder of a microwave irradiation apparatus. The breath was collected at a rate of about 100 to 300 ml/min using a stroke pump (Variable Stroke Pump VS-500; Shibata Kagaku Kogyo), and the CO2 concentration therein was maintained at about 3%. A Perma Pure drier (MD-050-12P; Perma Pure INC.) was set between the rat holder and the stroke pump to remove water vapor from the breath. When the CO2 concentration was stabilized, the rat was temporarily released from the rat holder. A ^13C-labeled dipeptide or a sodium salt thereof each dissolved in distilled water was administered to the stomach of the rat using an oral probe [dose: 35 μmol/kg (5 ml/kg)]. The breath was sampled with a syringe every 5 min until up to 20 min. A 15 ml sample was transferred from the syringe into a vacuum vial (10 ml), sealed and subjected to automated analysis by GC-MS (Breath MAT) [FinniganMAT]. Δ^13C(‰) was calculated from δ^13C values which are ^13C values of a sample (i.e. differences from the standard substance PDB) using the following formula. Δ^13C(‰)=(δ^13C)tmin−((δ^13C)0 min <Breath MAT Measuring Conditions>
Apparatus: Breath MAT plus (Finningan)
Using Ac-Met-(^13C-Ala)-ONa, Z-Met-(^13C-Ala)-ONa, Boc-Met-(^13C-Ala)-ONa or Boc-Phe-(^13C-Ala)-ONa [dose: 35 μmol/kg (5 ml/kg)], ^13C-breath tests were carried out in the same manner as in Example 12. The resultant Δ^13C(‰) peak values were compared with the Δ^13C(‰) peak value in the Bz-Ala-(^13C-Ala)-ONa breath test.
(§2) As in Example 12, Bz-Phe-(^13C-Ala)-ONa [dose: 12.6 mg/kg (35 μmol/kg)], Bz-Gln-(^13C-Ala)-ONa [dose: 12.0 mg/kg (35 μmol/kg)], Bz-Val-(^13C-Ala)-ONa [dose: 11.0 mg/kg (35 μmol/kg)], Bz-Tyr-(^13C-Ala)-ONa [dose: 13.2 mg/kg (35 μmol/kg)], Bz-Met-(^13C-Ala)-ONa [dose: 12.1 mg/kg (35 μmol/kg)], Bz-Ser-(^13C-Ala)-ONa [dose: 10.6 mg/kg (35 μmol/kg)], Bz-Thr-(^13C-Ala)-ONa [dose: 11.0 mg/kg (35 μmol/kg)] or Boc-Phe-(^13C-Ala)-ONa [dose: 8.84 mg/kg (24.6 μmol/kg)] was administered orally to normal rats and chronic pancreatitis rats. Then, the time course of the degree of increase of the ^13C concentration in exhaled CO2 (Δ^13C(‰)) was measured.

[2] = tested on: pancreatic exocrine function; assay: 13C-dipeptide breath test in chronic pancreatitis rats (oleic acid injected into pancreatic duct); type: in vivo, rat; conditions: oral 35 μmol/kg, mean±SD
Protocol: as §1
Chronic pancreatitis rats were created according to the method of Mundlos et al., Pancreas 1:29 (1986). Oleic acid was injected into the pancreatic duct of 5-week old Wistar male rats. After breeding for 3 weeks, they were used in ^13C-dipeptide breath tests.
as §2

Compound | Δ^13C(‰) peak value [1] | Peak time [1] | Δ^13C(‰) value at 5 min after the administration [1] | Δ^13C(‰) value at 10 min after the administration [1] | Δ^13C(‰) value at 15 min after the administration [1] | Δ^13C(‰) value at 20 min after the administration [1] | Δ^13C(‰) peak value compared with the peak value of Bz-Ala-(^13C-Ala)-ONa [1] | Δ^13C(‰) value at 5 min after the administration [2] | Δ^13C(‰) value at 10 min after the administration [2] | Δ^13C(‰) value at 15 min after the administration [2] | Δ^13C(‰) value at 20 min after the administration [2]
CC(C)[C@H](NC(=O)c1ccccc1)C(=O)N[C@@H](C)[13C](=O)[O-].[Na+] [Na salt of Bz-Val-(^13C-Ala), N-benzoyl-L-valyl-^13C-L-alanine] | 52.89 ‰ | 15 min | 13.98±6.59 ‰ | 35.22±8.02 ‰ | 52.89±11.18 ‰ | 45.38±6.53 ‰ | higher | 2.21±2.74 ‰ | 10.62±12.40 ‰ | 18.80±19.39 ‰ | 23.95±19.38 ‰
C[C@H](NC(=O)[C@H](CCC(N)=O)NC(=O)c1ccccc1)[13C](=O)[O-].[Na+] [Na salt of Bz-Gln-(^13C-Ala), N-benzoyl-L-glutaminyl-^13C-L-alanine] | 54.56 ‰ | 10 min | 13.86±4.98 ‰ | 54.56±14.10 ‰ | 51.27±3.21 ‰ |  | higher | 3.41±3.44 ‰ | 15.32±13.04 ‰ | 28.06±19.01 ‰ | 
C[C@H](NC(=O)[C@H](Cc1ccccc1)NC(=O)c1ccccc1)[13C](=O)[O-].[Na+] [Na salt of Bz-Phe-(^13C-Ala), N-benzoyl-L-phenylalanyl-^13C-L-alanine] | 55.62 ‰ | 10 min | 29.32±13.57 ‰ | 55.62±6.62 ‰ | 45.44±3.44 ‰ |  | higher | 4.17±3.95 ‰ | 14.56±10.79 ‰ | 22.80±12.36 ‰ | 
C[C@H](NC(=O)[C@H](Cc1ccc(O)cc1)NC(=O)c1ccccc1)[13C](=O)[O-].[Na+] [Na salt of Bz-Tyr-(^13C-Ala), N-benzoyl-L-tyrosyl-^13C-L-alanine] | 52.64 ‰ | 15 min | 10.33±6.34 ‰ | 33.62±4.76 ‰ | 52.64±11.32 ‰ | 45.61±5.27 ‰ | higher | 4.35±3.11 ‰ | 15.65±7.93 ‰ | 24.68±9.48 ‰ | 29.25±9.98 ‰
C[C@H](NC(=O)[C@H](CO)NC(=O)c1ccccc1)[13C](=O)[O-].[Na+] [Na salt of Bz-Ser-(^13C-Ala), N-benzoyl-L-seryl-^13C-L-alanine] | 47.48 ‰ | 15 min | 8.29±4.94 ‰ | 35.91±11.85 ‰ | 47.48±12.89 ‰ | 43.04±5.30 ‰ | higher | 1.07±1.43 ‰ | 5.94±8.13 ‰ | 10.34±11.99 ‰ | 12.80±11.97 ‰

Source: US7662857B2, “Diagnostic agents for pancreatic exocrine function” (Tokyo Gas Company Limited, priority 2001, dated 2010)
